Assay results as given in patent publication US20250302815A1, “PROTEIN TYROSINE PHOSPHATASE TARGETING LIGANDS” (CALICO LIFE SCIENCES LLC, priority 2021, published 2025).

Assays:
MC-38 tumor = assay: syngeneic mouse tumor model, MC-38 tumor growth inhibition; type: in vivo; settings: MC-38 tumor-bearing mice, mean tumor volume of 10 mice
From the text: Each point on the curve represents the mean of 10 tumor volume of 10 mice. Error bars depict the standard error of the mean. **=p<0.01.

[1] = molecular target: T1, PTPN2 (HiBIT-PTPN2 in 293T.109 cells) (Homo sapiens, UniProt P17706); assay: HiBiT Degradation 293T.109 PTPN2 (Nano-Glo HiBiT Lytic Assay); type: cell-based; settings: 24.0 hours
T1 construct: expressed in transfected cells; host or cells: 293T.109 (293T WT from ATCC)
T1 sequence (P17706 1-415): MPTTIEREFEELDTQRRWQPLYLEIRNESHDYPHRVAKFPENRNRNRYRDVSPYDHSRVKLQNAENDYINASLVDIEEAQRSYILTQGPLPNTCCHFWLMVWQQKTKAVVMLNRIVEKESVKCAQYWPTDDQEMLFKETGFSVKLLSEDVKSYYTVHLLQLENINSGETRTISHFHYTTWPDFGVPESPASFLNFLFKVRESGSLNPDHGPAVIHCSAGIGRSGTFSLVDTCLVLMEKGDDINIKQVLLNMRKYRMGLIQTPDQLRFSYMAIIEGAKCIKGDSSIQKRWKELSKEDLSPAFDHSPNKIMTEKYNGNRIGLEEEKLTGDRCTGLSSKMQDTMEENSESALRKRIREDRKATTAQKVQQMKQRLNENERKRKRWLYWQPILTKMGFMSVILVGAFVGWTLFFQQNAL
How it was run: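 Degradation read-out: lytic HiBiT luminescence after 24 h treatment (37 °C, 5% CO2) of 5000 293T cells per well expressing HiBiT-fused PTPN2 from an N-terminal tag. Dosing was 11 points, half-log steps down from 10 μM, in duplicate; vehicle-treated and no-reagent wells served as controls.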

PTPN2 (B16F10.4 cells) = molecular target: T2, PTPN2 (B16F10.4 cells) (Mus musculus, UniProt Q06180); assay: HiBiT Degradation B16F10.4 PTPN2; type: cell-based; settings: 24.0 hours
T2 construct: HiBiT; host or cells: B16F10.4
T2 sequence (Q06180 1-406): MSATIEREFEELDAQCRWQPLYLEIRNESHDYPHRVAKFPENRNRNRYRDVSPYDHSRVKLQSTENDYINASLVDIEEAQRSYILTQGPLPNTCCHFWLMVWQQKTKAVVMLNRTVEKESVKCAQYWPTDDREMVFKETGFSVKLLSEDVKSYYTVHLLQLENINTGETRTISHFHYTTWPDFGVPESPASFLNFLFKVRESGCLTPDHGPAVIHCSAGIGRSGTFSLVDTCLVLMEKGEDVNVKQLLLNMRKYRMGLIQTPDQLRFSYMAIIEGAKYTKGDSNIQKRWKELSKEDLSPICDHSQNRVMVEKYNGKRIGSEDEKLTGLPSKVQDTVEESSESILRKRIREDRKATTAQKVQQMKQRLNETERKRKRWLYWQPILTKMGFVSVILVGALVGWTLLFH

[2] = system: MC-38 murine colon adenocarcinoma tumors; assay: In vivo efficacy in MC38 syngeneic tumor model; settings: MC-38 tumor-bearing mice
Method: All experiments were conducted in compliance with AbbVie's Institutional Animal Care and Use Committee and the National Institutes of Health Guide for Care and Use of Laboratory Animals guidelines in a facility accredited by the Association for the Assessment and Accreditation of Laboratory Animal Care. C57Bl/6 female mice were obtained from Charles River (Wilmington, MA). The mice were group-housed 10 per cage. Food and water were available ad libitum. Animals were acclimated to the animal facilities for a period of at least one week prior to commencement of experiments. Animals were tested in the light phase of a 12-hour light: 12-hour dark schedule (lights on 0600 hours).
Cells were grown to passage 3 in vitro. A total of 1×10^5 viable MC-38 cells were inoculated subcutaneously into the right flank of female C57Bl/6 mice (7-12 weeks old) on Day 0. The injection volume was 0.1 mL and was composed of a 1:1 mixture of S-MEM and Matrigel® (Corning, NY, USA). […] The mean tumor volume (TV) at size match was approximately 139±45 mm^3. Following size match, treatments were initiated on the same day. Dosing of mice with Compound 187b (Example 187b) was conducted intravenously, weekly (QW) for 3 weeks. Mice were dosed (10 mg/kg/dose) with either Compound 187b or vehicle controls (n=10 mice/group). Compound 187b was formulated in 5% DMSO+10% PEG400+85% (35% HP-β-CD in water) and was dosed at 5 mL/kg. Anti-PD-1 and isotype antibodies were dosed at 5 mg/kg, […] at 4 day intervals (Q4Dx3). Antibodies were formulated in PBS and dosed at 10 mL/kg. Tumor volume was calculated three times weekly. Measurements of the length (L) and width (W) of the tumor were taken via electronic caliper and the volume was calculated according to the following equation: V=L×W^2/2 using Study Director Version 3.1.399.22 (Study log Systems, Inc, CA, USA). Mice were euthanized when tumor volume was […] or skin ulcerations occurred.

[3] = combination of anti-PD-1 antibody (5 mg/kg) with Compound 187b (10 mg/kg i.v. QWx3)
[4] = monotherapy, Compound 187b 10 mg/kg intravenously QW for 3 weeks, anti-PD-1 5 mg/kg intraperitoneal every 4 days

Row | DC50 [1] | DC50 (PTPN2 (B16F10.4 cells)) | Compound | anticancer and tumor growth inhibition activity in vivo (MC-38 tumor; in combination with anti-PD-1 therapy (Q4Dx2)) | anticancer and tumor growth inhibition activity in vivo (MC-38 tumor; monotherapy, QWx3) | tolerability ([2]; 10 mg/kg intravenously QW for 3 weeks) | TGIMax (maximal tumor growth inhibition) [2, 3] | mice achieving cures [2, 3] | TGIMax (maximal tumor growth inhibition) [2, 4] | mice achieving complete cures [2, 4] | tumor response ([2]; within 7-10 days of monotherapy treatment)
1 | < 50 nM | < 50 nM | CC1(C)C[C@@H](Nc2cccc(-c3sc(C(=O)O)c(OCC(=O)O)c3Cl)c2)CCN1S(=O)(=O)Cc1cccc(NC(=O)N2CCC(c3ccc4c5c(cccc35)C(=O)N4[C@H]3CCC(=O)NC3=O)CC2)c1 (single isomer, unassigned) [Example 187b] | tumor growth inhibition | tumor growth inhibition | well tolerated | 98% | 90% | 75% | 10% | apparent tumor stasis and shrinkage
2 | < 50 nM | < 50 nM | Cn1c(=O)n(C2CCC(=O)NC2=O)c2ccc(Cc3ccc(CC(=O)Nc4cccc(CS(=O)(=O)N5CC[C@H](Nc6cccc(-c7sc(C(=O)O)c(OCC(=O)O)c7Cl)c6)CC5(C)C)c4)cc3)cc21 (stereo partly drawn) [Example 236, 3-(carboxymethoxy)-4-chloro-5-[3-[[(4S)-1-[[3-[[2-[4-[[1-(2,6-dioxo-3-piperidyl)-3-methyl-2-oxo-benzimidazol-5-yl]methyl]phenyl]acetyl]amino]phenyl]methylsulfonyl]-2,2-dimethyl-4-piperidyl]amino]phenyl]thiophene-2-carboxylic acid] | – | – | – | – | – | – | – | –
3 | < 50 nM | 50 to 200 nM | Cn1c(=O)n(C2CCC(=O)NC2=O)c2ccc(N3CCC(CCNCCNc4cccc(CS(=O)(=O)N5CC[C@H](Nc6cccc(-c7sc(C(=O)O)c(OCC(=O)O)c7Cl)c6)CC5(C)C)c4)CC3)cc21 (stereo partly drawn) [Example 237, 3-(carboxymethoxy)-4-chloro-5-[3-[[(4S)-1-[[3-[2-[2-[1-[1-(2,6-dioxo-3-piperidyl)-3-methyl-2-oxo-benzimidazol-5-yl]-4-piperidyl]ethylamino]ethylamino]phenyl]methylsulfonyl]-2,2-dimethyl-4-piperidyl]amino]phenyl]thiophene-2-carboxylic acid] | – | – | – | – | – | – | – | –
